Literature values as cited in patent publication US20250205146A1, “GRAPHENE-BASED DRUG DELIVERY DEVICE FOR MUCOSAL AND TRANSMUCOSAL ADMINISTRATION” (SISSA - SCUOLA INTERNAZIONALE SUPERIORE DI STUDI AVANZATI, priority 2022, published 2025).

Conditions: cyclic voltammetry, depending on the electrochemical system used

Cn1c(=O)c2c(ncn2C)n(C)c1=O [caffeine]
irreversible oxidation peak potential: over 1.4 V
